As usually defined, the inhibition is how much of the control response was suppressed.

Assay [1] addresses T1, Full-length phosphorylated PDK1 (Homo sapiens, UniProt O15530).
T1 sequence (O15530 1-556): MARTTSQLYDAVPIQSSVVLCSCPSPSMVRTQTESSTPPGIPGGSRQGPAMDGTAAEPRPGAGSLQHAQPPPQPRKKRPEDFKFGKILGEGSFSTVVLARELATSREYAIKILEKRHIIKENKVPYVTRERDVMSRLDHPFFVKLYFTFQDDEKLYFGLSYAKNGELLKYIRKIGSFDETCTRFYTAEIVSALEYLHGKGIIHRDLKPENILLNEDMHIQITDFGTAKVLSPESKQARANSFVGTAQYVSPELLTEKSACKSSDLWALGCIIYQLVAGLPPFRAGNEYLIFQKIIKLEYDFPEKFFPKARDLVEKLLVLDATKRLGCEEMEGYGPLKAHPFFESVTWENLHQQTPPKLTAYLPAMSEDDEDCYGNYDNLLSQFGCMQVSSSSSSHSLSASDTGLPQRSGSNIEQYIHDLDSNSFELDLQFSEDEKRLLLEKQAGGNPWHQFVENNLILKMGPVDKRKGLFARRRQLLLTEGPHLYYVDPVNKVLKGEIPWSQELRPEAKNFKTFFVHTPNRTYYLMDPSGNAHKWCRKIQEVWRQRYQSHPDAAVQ
As to the kind of experiment: FRET-based PIF-tide binding assay. Conditions: 10 nM compound where stated, FIG. 13D.

The target in the next assay is T2, Full-length PDK1 (Homo sapiens, UniProt O15530).
T2 construct: Full-length PDK1 protein (SignalChem) was dephosphorylated; purchased SignalChem
T2 sequence (O15530 1-556): T1 sequence (O15530 1-556)
In words: PDK1 kinase activity assay (FRET). The format is biochemical. Conditions: for inhibition of PDK1 kinase activity: phosphorylated and un-phosphorylated PDK1, FIGS. 2A and 2B. On the procedure:
Full-length PDK1 protein (SignalChem) was dephosphorylated using GST-k-phosphatase (produced in house), which was subsequently removed using glutathione-agarose beads (Gold Biotechnology). […] Tb-pCrosstide antibody (ThermoFisher) was then added to a final concentration of 2 nM and the reaction was incubated for an additional 30 min. Fluorescence resonance energy transfer (FRET) was measured using a Tecan Infinite F500 plate reader with λex=340 nm, λem1=485 nm, λem2=520 nm.

Assay [2] deals with hematologic tumor cell lines. As to the kind of experiment: MTS cell proliferation assay, panel of hematologic cancer cell lines. The format is cell-based. An outline of the steps:
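72 hr compound exposure, 37° C, 5% CO2; 0.1% v/v DMSO final. Readout: MTS/PMS 20:1, 1.5 hr, A490. Data as % of DMSO control; 4-parameter log(inhibitor) fit, top fixed at 100%.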
In general terms: Formazan colour is commonly taken as a measure of viable cells.

Another assay concerns KG1. As to the kind of experiment: MTS cell proliferation assay, KG1. It is filed as cell-based. Particulars: Homo sapiens, KG-1; KG1, 72 hr. The protocol: Cell proliferation was measured using the CellTiter 96 Aqueous Non-Radioactive Cell Proliferation Assay (Promega). The CellTiter 96® AQueous Assay is composed of solutions of a tetrazolium compound [3-(4,5-dimethylthiazol-2-yl)-5-(3-carboxymethoxyphenyl)-2-(4-sulfophenyl)-2H-tetrazolium, inner salt; MTS] and an electron coupling reagent (phenazine methosulfate) PMS. MTS is bioreduced by cells into a formazan product that is soluble in tissue culture medium. The absorbance of the formazan product at 490 nm can be measured directly from assay plates without additional processing. The quantity of formazan product as measured by the amount of 490 nm absorbance is directly proportional to the number of living cells in culture. Cells were seeded into 96-well or 384-well clear plates in a volume of 200 μL (96-well) or 50 μL (384-well) at optimized densities ranging from 1,000 to 40,000 cells per well for 96-well plates or 1,200 to 25,000 cells per well for 384-well plates depending on cell-line. After 4-6 hr recovery, serially diluted compounds in DMSO were added to the cells using (0.1% v/v final DMSO concentration). Cells were then grown at 37° C. in a humidified incubator with 5% CO2 for 72 hr. A 20:1 [3-(4,5-dimethylthiazol-2-yl)-5-(3-carboxymethoxyphenyl)-2-(4-sulfophenyl)-2H-tetrazolium](MTS):phenazine methosulfate (PMS) solution in DPBS was made immediately before use, added to each well, and cells were incubated for 1.5 hr at 37° C. The absorbance at 490 nm was then measured using a platereader. Absorbance values were normalized as percent of control (cells incubated in the presence of 0.1% v/v DMSO). Sigmoidal dose-response curves were plotted using log(inhibitor) vs. response—Variable slope (four parameters) model with a top value constrained to 100% (GraphPad Prism version 6.00 for Windows, GraphPad Software, La Jolla California USA). […] Curves for compounds that reached a plateau were matched exactly to the measurement points. […]

A further assay relates to P-RSK2. As to the kind of experiment: Western blot, RSK2 phosphorylation in MV4-11 cells. The format is cell-based, human. On the procedure: For phosphoprotein analyses, cells were seeded into 10 cm petri dishes (10×10^6 cells/dish) in media supplemented with 10% FBS and penicillin/streptomycin. After cells recovered for 1 hr at 37° C., compounds were added in DMSO (0.1% final) and incubated for 4 or 24 hr at 37° C. Cells were then harvested by centrifugation and washed with cold PBS. Cell pellets were resuspended in cell extraction buffer (Invitrogen) supplemented with 2×Halt™ protease and phosphatase inhibitor cocktail (Thermo Scientific), 2 mM sodium orthovanadate, 10 mM EDTA and 4 mM PMSF. Samples were lysed by sonication and incubated on ice for 30 min. Cell debris was removed by centrifugation and protein concentrations were determined using the BCA Protein Assay Kit (Pierce). The clarified lysate was diluted in LDS sample buffer with reducing agent (Life Technologies). […] Gels were run at 110 V and proteins were transferred to a PVDF membrane. Membranes were blocked in TBS blocking buffer (Li-Cor Biosciences) for 1 hr. Primary antibodies (Cell Signaling, Sant Cruz Biotechnology) were added (1:1,000 dilution) in blocking buffer with 0.1% Tween-20 and 1:20,000 dilution of β-actin antibody and incubated for 14 hr at 4° C. Blots were washed in TBS-T. Label-conjugated goat anti-rabbit secondary antibody (IRdye® 800CW; Li-Cor Biosciences) was added in blocking buffer with 0.1% Tween-20 and 0.02% SDS and incubated for 1 hr. After washing in TBS-T followed by TBS, membranes were scanned on an Odyssey imaging system (Li-Cor Biosciences). Bands were quantitated using ImageJ.

[3] abbreviates: range against the various cell lines of Table 1, read-out: inhibition of cell proliferation EC50.

Read-outs that look alike come from different tables or passages of the source.

`C[C@H](NC(=O)c1nc(C#N)cnc1NCc1ccc(-c2cnc3[nH]nc(N)c3n2)cc1)c1ccc(F)c(F)c1` [Compound 1, 3-[4-(3-Amino-1H-pyrazolo[3,4-b]pyrazin-5-yl)-benzylamino]-6-cyano-pyrazine-2-carboxylic acid [1-(3,4-difluoro-phenyl)-ethyl]-amide]: the “FRET between PDK1 and PIF-tide” value in assay [1] is reported as “near complete inhibition”. The “inhibition of PDK1 kinase activity” value against Full-length PDK1 is “potent inhibitors of both phosphorylated and un-phosphorylated PDK1”. The results for the EC50 (in assay [2] (setting [3]); with KG1) were 3 to 853 nM and 175 nM, respectively.

For `CNc1n[nH]c2ncc(-c3ccc(CNc4ncc(C#N)nc4C(=O)N[C@@H](C)c4ccc(F)c(F)c4)cc3)cc12` [Compound 2, 6-Cyano-3-[4-(3-methylamino-1H-pyrazolo[3,4-b]pyridin-5-yl)-benzylamino]-pyrazine-2-carboxylic acid [1-(3,4-difluoro-phenyl)-ethyl]-amide], the “FRET between PDK1 and PIF-tide” value in assay [1] is recorded as “near complete inhibition”. Besides, the “biochemical potency compared to GSK2334470” value at Full-length PDK1 was “comparable biochemical potency”. Besides, at Full-length PDK1, the “inhibition of PDK1 kinase activity” value is “potent inhibitors of both phosphorylated and un-phosphorylated PDK1”. Further, in assay [2] (72 hours viability assays), the “fold more potent than GSK2334470 in viability assays” value was “at least 10 fold”. Besides, the “number of cell lines with growth inhibition at concentrations less than 500 nM” value in assay [2] (out of 16 cell lines) is recorded as 15. Moreover, the EC50 in assay [2] (panel of more than 20 cell lines derived from hematologic cancers, read-out: anti-proliferative activity EC50) was 3 to 900 nM; in assay [2] (setting [3]), 3 to 853 nM; in assay [2] (range over 16 cell lines, FIG. 3, read-out: potency in the cell proliferation assay (EC50)) it was less than 1000 nM; in the assay with KG1, 195 nM. This molecule yielded an inhibition at 0.03 µM in the assay on P-RSK2 (Homo sapiens, MV4-11, FIG. 6C, 30 nM, 4 hrs) of 90%. Further, in the assay on P-RSK2 (Homo sapiens, MV4-11, 100 nM), the inhibition at 0.1 µM was greater than 95%. Further, in the assay with P-RSK2 (MV4-11, 30 nM, various times), the “inhibition of RSK2 phosphorylation” value was “potent and time-independent”.

The values are drawn from US20240207258A1, “HETEROCYCLIC PDK1 INHIBITORS FOR USE TO TREAT CANCER” (Viracta Therapeutics, Inc., priority 2015, published 2024).
